# Values joined by “and” are separate entries in the source; they are usually repeats but may differ in a detail not shown here. Equal values may be shown once.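 Tested at 5 concentrations; 48 h exposure; 96-well plates; endpoints linearly interpolated, else capped at highest concentration. GI50 marks 50% less growth. Definition used: TGI = concentration required for complete inhibition of growth.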
# What was measured:
# Assay in all cases: inhibition of tumour cell growth, NCI panel, 48 h
# CCRF-CEM leukemia = system: CCRF-CEM leukemia
# T-47D breast = system: T-47D breast
# UACC-257 melanoma = system: UACC-257 melanoma
# IGROV1 ovarian = system: IGROV1 ovarian
# OVCAR-5 ovarian = system: OVCAR-5 ovarian
# NCI/ADR-RES ovarian = system: NCI/ADR-RES ovarian
# MDA-MB-231 breast = system: MDA-MB-231 breast
# NCI-H522 lung = system: NCI-H522 lung
# HCT-116 colon = system: HCT-116 colon
# MOLT-4 leukemia = system: MOLT-4 leukemia
Structure (SMILES),GI50 (CCRF-CEM leukemia),TGI (CCRF-CEM leukemia),GI50 (T-47D breast),TGI (T-47D breast),GI50 (UACC-257 melanoma),TGI (UACC-257 melanoma),GI50 (IGROV1 ovarian),TGI (IGROV1 ovarian),GI50 (OVCAR-5 ovarian),TGI (OVCAR-5 ovarian),GI50 (NCI/ADR-RES ovarian),TGI (NCI/ADR-RES ovarian),GI50 (MDA-MB-231 breast),TGI (MDA-MB-231 breast),GI50 (NCI-H522 lung),TGI (NCI-H522 lung),GI50 (HCT-116 colon),TGI (HCT-116 colon),GI50 (MOLT-4 leukemia),TGI (MOLT-4 leukemia)
COCc1c(-c2cc3cc(C)cc(OC)c3s2)c2c(N)ncnn2c1CN1CCNC(=O)C1,3.42 µM,53.8 µM,4.84 µM,47.4 µM,4.06 µM,34.6 µM,3.39 µM,> 100 µM,4.11 µM,77 µM,24.3 µM,> 100 µM,6.11 µM,61.4 µM,3.78 µM,25.3 µM,5.08 µM,44.4 µM,3.22 µM,48.5 µM
O=C(Nc1cccc(O)c1)c1ccc(NC2=C(Cl)C(=O)N(Cc3ccc(Cl)cc3Cl)C2=O)cc1,0.244 µM,0.95 µM,2.01 µM,> 21.2 µM,7.96 µM,21.6 µM,1.7 µM,3.3 µM,18.8 µM,34.1 µM,21.6 µM,48.1 µM,1.85 µM,4.05 µM,1.94 µM,4.24 µM,6.89 µM,> 56.4 µM,0.383 µM,2.17 µM
CC1=C2[C@@H](CC1)[C@]1(C)O[C@@](C(C)C)(C[C@H]1OC(=O)CO)[C@H]2OC(=O)C1CC1c1ccccc1 (stereo not given in full),16.2 µM,39.1 µM,4.16 µM,21.6 µM,17.3 µM,32.4 µM,19.1 µM,46.7 µM,20.3 µM,40.4 µM,8.95 µM,30.8 µM,15.5 µM,33.7 µM,12.7 µM,28 µM,17.7 µM,33.2 µM,9.73 µM,28.8 µM
CCOC(=O)c1cc2c(cc1Cl)SC(=Nc1ccccc1)N(S(=O)(=O)c1ccc(Cl)cc1)S2(=O)=O,2.57 µM,7.4 µM,3.84 µM,23.4 µM,17.6 µM,40.3 µM,8.11 µM,22.5 µM,19.4 µM,36.8 µM,18.3 µM,36.5 µM,13.2 µM,33.7 µM,15.5 µM,42.8 µM,6.32 µM,21.9 µM,11.7 µM,37.3 µM
CCOCCCn1c2c(c3c(O)cccc31)C(=O)c1ccccc1-2,25.1 µM,88.6 µM,13.9 µM,46.5 µM,27.8 µM,68.6 µM,17.1 µM,48.7 µM,17.8 µM,39.9 µM,20.8 µM,56.5 µM,12.8 µM,35.3 µM,14 µM,35.7 µM,16.6 µM,33.5 µM,13.7 µM,32.7 µM
CCN(Cc1ccccc1)C1CCN(Cc2cc(Br)ccc2O)CC1,39.3 µM,> 100 µM,24 µM,> 100 µM,26 µM,> 100 µM,> 100 µM,> 100 µM,> 100 µM,> 100 µM,31.9 µM,> 100 µM,31.6 µM,> 100 µM,17 µM,40.3 µM,23.2 µM,> 100 µM,32.6 µM,> 100 µM
CCOC(=O)Oc1cc2c(c(OC)c1OC)-c1ccc(OC)c(=O)cc1C(NC(C)=O)CC2 (stereo not given),–,> 21.5 µM,–,> 100 µM,–,> 100 µM,–,> 69.6 µM,–,> 100 µM,–,> 57.9 µM,–,> 90.2 µM,–,0.0271 µM,–,1.85 µM,–,22.9 µM
CC1CC[P+](c2ccccc2)(c2ccccc2)c2c1ccc1ccccc21 (stereo not given),–,42.1 µM,–,> 71.6 µM,–,13.9 µM,4.42 µM,21.2 µM,–,> 100 µM,–,> 100 µM,8.98 µM,> 45 µM,–,9.87 µM,–,> 39.5 µM,–,37.6 µM
COc1ccc(C/C(=C(\C)c2ccc(OCCN3CCCC3)cc2)c2ccc(OCCN3CCCC3)cc2)cc1,1.8 µM,4.51 µM,1.69 µM,3.37 µM,1.76 µM,3.31 µM,1.87 µM,3.97 µM,1.8 µM,3.72 µM,1.96 µM,3.71 µM,1.73 µM,3.37 µM,1.86 µM,3.53 µM,–,–,1.94 µM,4.51 µM
O=C(/C=C\c1ccc([N+](=O)[O-])cc1)c1ccccc(=O)c1O,–,0.532 µM,–,23.8 µM,–,7.85 µM,–,4.16 µM,–,9.92 µM,–,2.97 µM,–,17.1 µM,–,6.63 µM,–,2.35 µM,–,> 21.8 µM
Cc1csc2[n+]1-c1ccccc1N(C(=O)Nc1ccccc1)C(C)C2 (stereo not given),29.5 µM,69.6 µM,> 100 µM,> 100 µM,> 100 µM,> 100 µM,80.7 µM,> 100 µM,28.6 µM,99.5 µM,25.1 µM,88.4 µM,18.6 µM,45.3 µM,61.9 µM,> 100 µM,16.5 µM,31.5 µM,88.5 µM,> 100 µM
COc1cccc(CC(C)=C(c2ccc(OCCN3CCCCC3)cc2)c2ccc(OCCN3CCCCC3)cc2)c1,1.71 µM,4.73 µM,1.58 µM,4.06 µM,2.14 µM,4.33 µM,1.89 µM,3.99 µM,2.02 µM,3.99 µM,2.1 µM,4.34 µM,1.92 µM,4.02 µM,2.16 µM,4.53 µM,2.25 µM,4.26 µM,1.5 µM,4.01 µM
C=C/C=C/[C@@H](O)CC(=C)C[C@H]1OC2[C@H](C)[C@@H](OC(=O)C[C@H]3C[C@H](OC(C)=O)C[C@@]4(C[C@@](C)(O)C[C@H](CC(=C)[C@@H](C)[C@H](OC(C)=O)[C@H](C)C(=O)C[C@@H]5C[C@H](OC)CC6(C[C@@H](O)C[C@H](/C=C\CCC[C@H]7O[C@](O)(C=C[C@H]7C)[C@H]2O)O6)O5)O4)O3)[C@@H]1O,0.0025 µM,> 25 µM,–,> 25 µM,0.00248 µM,> 25 µM,0.00158 µM and < 0.0025 µM,< 0.0025 µM,0.00293 µM and 0.0025 µM,> 25 µM,–,0.164 µM,0.000409 µM and 0.0025 µM,0.00362 µM,0.000825 µM and < 0.0025 µM,< 0.0025 µM,–,0.0112 µM,–,–
O=C(Nc1ccccc1)Nc1ccc2cc3ccc(NC(=O)Nc4ccccc4)cc3nc2c1,0.276 µM,0.828 µM,1.53 µM,3.08 µM,–,–,1.66 µM,4.3 µM,3.1 µM,> 100 µM,68.7 µM,> 100 µM,1.4 µM,2.8 µM,1.6 µM,3.35 µM,0.232 µM,0.615 µM,0.559 µM,2.13 µM
CC1=C(c2ccccc2)C(O)(c2ccccc2)C(C)C1=O (stereo not given),23.7 µM,> 100 µM,23.1 µM,> 100 µM,55 µM,> 100 µM,10.3 µM,> 100 µM,53.1 µM,> 100 µM,2.95 µM,9.94 µM,14 µM,> 100 µM,–,–,9.95 µM,> 100 µM,21.6 µM,> 100 µM
CCCCCCCCCCCCCC[N+](C)(C)CCCCCCCCCCCCCC,–,–,2.2 µM,7.73 µM,2.49 µM,8.61 µM,–,–,2.92 µM,9.91 µM,7.42 µM,63.4 µM,–,–,1.93 µM,5.17 µM,–,–,2.41 µM,6.44 µM
COc1ccc2c(c1)nc(C(=O)c1ccco1)c(C(F)(F)F)[n+]2[O-],> 100 µM,> 100 µM,77.4 µM,> 100 µM,–,–,> 100 µM,> 100 µM,> 100 µM,> 100 µM,> 100 µM,> 100 µM,> 100 µM,> 100 µM,> 100 µM,> 100 µM,> 100 µM,> 100 µM,> 100 µM,> 100 µM
NCCCC[C@@H]1NC(=O)[C@H](CC(=O)O)NC(=O)CNC(=O)[C@H](CCCN=C(N)N)NC(=O)[C@@H](N)CSSC[C@@H](C(=O)O)NC(=O)[C@H](CC(=O)O)NC(=O)[C@@H]2CCCN2C(=O)CNC1=O,> 100 µM,> 100 µM,> 100 µM,> 100 µM,> 100 µM,> 100 µM,> 100 µM,> 100 µM,> 100 µM,> 100 µM,> 100 µM,> 100 µM,–,–,> 100 µM,> 100 µM,> 100 µM,> 100 µM,> 100 µM,> 100 µM
COC(=O)C1=C(O)[C@H](C(=O)OC)C2(O)C(C(=O)OC)[C@H](c3ccc(OC(=O)C(C)c4ccc(CC(C)C)cc4)cc3)C[C@@H]1[C@@H]2C(=O)OC (stereo not given in full),–,–,12.3 µM,> 50 µM,27.2 µM,> 50 µM,15 µM,41.3 µM,17 µM,> 50 µM,> 50 µM,> 50 µM,5.52 µM,22.8 µM,14.3 µM,> 50 µM,> 50 µM,> 50 µM,–,–

# — PubChem BioAssay (NCI)
